{"source": "paper PMC4935942", "about": "“Efficient Inhibition of Hepatitis B Virus Infection by a preS1-binding Peptide” (Scientific Reports, 2016)", "key": {"[1]": {"system": "HBV attachment to PMH", "experiment": "HBV attachment to PMH (immunofluorescent staining of cell-bound HBsAg)", "assay_type": "cell-based, Hepatitis B virus", "conditions": "1 μM; immunofluorescence", "procedure": "(§1) For HBV attachment assays, viruses in HepAD38 supernatants were precipitated in 10% polyethylene glycol (PEG) 8000 (Sangon) for 16 hours at 4 °C, centrifuged at 7,000 × g for 1 hour at 4 °C and resuspended in DMEM. Viral titers were determined using a real-time PCR kit (Qiagen, Düsseldorf, Germany) and represented as genome equivalent per milliliter (GE/ml). […] After incubation at 37 °C for 4 hours, cells were washed repeatedly with ice-cold PBS. Viral DNA was prepared from cell lysate with DNeasy Blood Kit (Qiagen) and quantified using real-time PCR with primers 5′-[…] -3′ and 5′-[…] -3′.\n(§2) PHH at 14 days post infection and PTH at 12 days post infection were washed 3 times with ice-cold PBS and fixed in 3.7% paraformaldehyde in PBS for 15 min at room temperature. Cells were washed, permeabilized with 0.5% Triton X-100 in PBS, washed again and incubated in 1% BSA in PBST for 30 minutes at room temperature. Cells were then stained with a polyclonal rabbit anti-HBcAg (1:700 dilution, Dako, Inc, Carpinteria, CA) overnight at 4 °C in a humidified chamber. After washing, PHH and PTH were incubated with Alexa Fluor 488 goat anti-rabbit IgG (H+L) and Alexa Fluor 546 goat anti-rabbit IgG (H+L) (1:1000 dilution, Life Technologies, USA) for 1 hour at room temperature in dark, respectively. After 3 washes in dark, cells were stained with DAPI for 10 minutes at room temperature. […]"}, "[2]": {"system": "preS1/2-48^myr", "experiment": "preS1/2-48^myr-FITC binding to immobilized N-biotinylated B10 monomer/concatemers", "parameters": "species or system HBV (genotype D)", "conditions": "N-biotinylated peptide 2 μg/well on streptavidin-coated wells; 1 h at room temperature; fluorescence", "procedure": "(§3) The N-biotinylated B10 monomer or concatemers (Fig. 1A) (2 μg/well) was applied into the streptavidin-coated wells and incubated for 45 minutes at room temperature. Wells were washed with PBST (0.05% Tween 20 in PBS). […] Excess preS1/2-48^myr-FITC peptides were removed with PBST. Fluorescence intensity was then measured using a VICTOR X multilabel reader (Perkin Elmer, Waltham, MA). In virus capture assays, 1 × 10^6 viruses from pooled HBV positive serum (Ruijin Hospital, Shanghai) were applied per well. After incubation at 4 °C for 4 hours, wells were washed and 100 μl of horseradish peroxidase-labeled HBsAg antibody (Kehua, Shanghai, China) was added and incubated for 1 hour at room temperature. The absorbance at 450 nm was measured."}, "[3]": {"system": "binding of preS1/2-48^myr-FITC to PMH", "experiment": "Inhibition of preS1/2-48^myr-FITC binding to PMH", "assay_type": "cell-based, mouse (C57BL/6)", "conditions": "0.5 μM preS1/2-48^myr-FITC, 100 μM peptide (200-fold molar excess), 4 h at 37 °C; confocal microscopy", "procedure": "PMH and HepG2 cells were seeded into 12-well plates at a density of 1 × 10^5 cells per well and cultured in WEM and DMEM without FBS respectively. […] Cell nuclei were stained with DAPI (4′6′-diamidino-2-phenylindole) (Sangon, Shanghai, China) for 10 minutes at room temperature. Cells were examined using a confocal microscope (Leica Biosystems, Germany)."}, "[4]": {"system": "HBV infection of PHH", "experiment": "Intracellular HBcAg expression in HBV-infected PHH (immunofluorescence)", "assay_type": "cell-based, Hepatitis B virus", "conditions": "day 14 post-infection", "procedure": "(§4) All infections were repeated at least twice.\n(§5) PHH at 14 days post infection and PTH at 12 days post infection were washed 3 times with ice-cold PBS and fixed in 3.7% paraformaldehyde in PBS for 15 min at room temperature. Cells were washed, permeabilized with 0.5% Triton X-100 in PBS, washed again and incubated in 1% BSA in PBST for 30 minutes at room temperature. Cells were then stained with a polyclonal rabbit anti-HBcAg (1:700 dilution, Dako, Inc, Carpinteria, CA) overnight at 4 °C in a humidified chamber. After washing, PHH and PTH were incubated with Alexa Fluor 488 goat anti-rabbit IgG (H+L) and Alexa Fluor 546 goat anti-rabbit IgG (H+L) (1:1000 dilution, Life Technologies, USA) for 1 hour at room temperature in dark, respectively. After 3 washes in dark, cells were stained with DAPI for 10 minutes at room temperature. For detection of HBV attached to PMH and HepG2 cells, cells were stained with a mouse monoclonal anti-HBsAg (1:1000 dilution, Dako) followed by Alexa Fluor 488 goat anti-mouse IgG (H+L) (1:1000 dilution, Life Technologies). Cells were examined under a confocal microscope (Leica Biosystems)."}, "[5]": {"system": "HBV infection of PTH", "experiment": "Intracellular HBcAg expression in HBV-infected PTH (immunofluorescence)", "assay_type": "cell-based, Hepatitis B virus", "conditions": "day 12 post-infection", "procedure": "as §4, §5"}, "[6]": {"system": "HBV particles", "experiment": "HBV virus capture assay", "assay_type": "binding, Hepatitis B virus", "conditions": "1 × 10^6 viruses per well from pooled HBV positive serum; 4 °C for 4 h; HRP-labeled HBsAg antibody, absorbance at 450 nm", "procedure": "as §3"}, "[7]": {"system": "HepG2 cells", "conditions": "4B10 0.01 μM, 1 μM and 100 μM, or LA-20; 72 h; CCK-8", "description": "(§6) To rule out potential cytotoxicity of the peptides, the viability of cells exposed to 4B10 (0.01 μM, 1 μM and 100 μM) or LA-20 for 72 hours was analyzed.\n(§7) For PTH, cells were cultured in medium containing 4B10 and LA-20 (0.01 μM, 1 μM or 100 μM) and viability measured using cell counting kit-8 (CCK-8) (Dojindo, Japan)."}, "[8]": {"system": "HBV infection of PTH", "description": "(§8) Freshly isolated PTH were seeded into collagen-coated 6-well plates (BD Biosciences, San Jose, CA) and maintained in Hepato-Stim Hepatocyte Defined medium (HDM) (BD Biosciences) at 5 × 10^5 cells per well. Twenty-four hours post-seeding, PTH were infected with concentrated viruses prepared from HepAD38 supernatants (genotype D) at a multiplicity of infection (MOI) of 100 GE per cell. […] After incubation at 37 °C overnight, cells were washed 5 times with PBS and cultivated for 12 days. For HBV infection of PHH, freshly prepared PHH were seeded into collagen-coated wells in supplemented WEM at 5 × 10^5 cells per well. […] PTH and PHH culture media were changed every two days, and hepatitis B surface antigen (HBsAg) and e antigen (HBeAg) in collected supernatants were determined using enzyme linked immunosorbent assay (ELISA) kits (Kehua). All infections were repeated at least twice."}, "[9]": {"system": "HIV-1", "conditions": "TZM-bl cells; strains B12 and SH1.81, 200 TCID50; 4B10 up to 100 μM; luciferase, 48 h post infection", "description": "The infection of two strains of tat-expressing, replication deficient HIV-1, B12 and SH1.81, was tested on TZM-bl cells harboring HIV-1 LTR-luciferase reporter[30]. Envelope proteins of B12 and SH1.81 were derived from HIV-1 B and A/E recombinant subtype, respectively. […] Forty-eight hours post infection, intracellular luciferase activity was measured with a luciferase assay kit (Promega, Madison, WI)."}, "[10]": {"system": "HBV infection of PHH", "experiment": "HBV infection of primary human hepatocytes", "conditions": "for IC50: pooled patient sera (genotypes B and C), MOI 400, day 14 post infection, ELISA, printed with 'about'", "description": "as §8"}, "[11]": {"system": "PMH", "conditions": "4B10 0.01 μM, 1 μM and 100 μM, or LA-20; 72 h; CCK-8", "description": "as §6, §7"}, "[12]": {"system": "PHH", "conditions": "0.05 nM to 500 μM; 24 h; CellTiter-Glo", "description": "PHH and PTH were seeded into collagen-coated 96-well plates at 5 × 10^4 cells per well."}, "[13]": {"system": "HBV attachment to PMH", "experiment": "HBV attachment to PMH (real-time PCR)", "assay_type": "cell-based, Hepatitis B virus", "conditions": "1 × 10^7 GE/well viruses pre-incubated 30 min at 37 °C, 4 h at 37 °C, triplicate, repeated at least three times", "procedure": "as §1"}, "[14]": {"system": "HBV attachment to HepG2 cells", "experiment": "HBV attachment to HepG2 cells", "assay_type": "cell-based, Hepatitis B virus", "conditions": "real-time PCR and immunofluorescent staining of HBsAg; viruses pre-incubated with 4B10 0.1 nM, 10 nM or 1 μM", "procedure": "as §1, §2"}, "[15]": {"system": "primary mouse hepatocytes (PMH)", "experiment": "Flow cytometry binding of FITC-labelled peptides to PMH", "conditions": "discussion; Fig. 3A"}, "[16]": {"system": "VSV-G pseudotyped lentivirus", "assay_type": "cell-based"}, "[17]": {"conditions": "PTH, 4B10 0.01-100 nM or LA-20 100 nM, ELISA"}}, "note": "Read-outs that look alike come from different tables or passages of the source. Where no end group is shown, it is not given here.", "data": [{"sequence": "LRNIRLRNIRLRNIRLRNIR [4B10]", "values": [{"measurement": "HBV attachment to PMH (HBsAg staining)", "setting": "[1]", "value": "markedly reduced"}, {"measurement": "preS1-binding activity (preS1/2-48^myr-FITC)", "setting": "[2]", "value": "showed the highest binding activity"}, {"measurement": "inhibition of binding of preS1/2-48^myr-FITC to PMH", "setting": "[3]", "value": "completely blocked"}, {"measurement": "post-infection HBcAg expression", "setting": "[4]", "value": "dose-dependent decrease in post-infection HBcAg expression"}, {"measurement": "post-infection HBcAg expression", "setting": "[5]", "value": "dose-dependent decrease in post-infection HBcAg expression"}, {"measurement": "HBV-binding activity", "setting": "[6]", "value": "showed the highest binding activity"}, {"measurement": "cytotoxic effect on HepG2 cells", "setting": "[7]", "value": "No notable cytotoxic effect"}, {"measurement": "inhibition of HBV infection of primary tupaia hepatocytes", "setting": "[8]", "value": "low nanomolar concentrations"}, {"measurement": "effect on post-infection HBeAg expression", "setting": "[8]; [17]", "value": "dose-dependent decrease"}, {"measurement": "effect on post-infection HBsAg expression", "setting": "[8]; [17]", "value": "dose-dependent decrease"}, {"measurement": "IC50", "setting": "[8]; infection of PTH", "value": "0.1 to 1", "unit": "nM"}, {"measurement": "inhibition of infection by genotype D viruses", "setting": "[8]; viruses derived from HepAD38 cells", "value": "could inhibit the infection of genotype B and C viruses from HBV-infected patients as well as genotype D viruses"}, {"measurement": "inhibitory effect on infection of HIV-1", "setting": "[9]", "value": "no inhibitory effect"}, {"measurement": "inhibition of HBV infection (in words)", "setting": "[10]; PHH, 4B10 0.05-500 nM", "value": "Dose-dependent and efficient inhibition of HBV infection"}, {"measurement": "inhibition of HBV infection of primary human hepatocytes", "setting": "[10]; abstract", "value": "low nanomolar concentrations"}, {"measurement": "IC50", "setting": "[10]; read-out: IC50 based on HBeAg measurement, PHH", "value": "0.5 to 5", "unit": "nM"}, {"measurement": "IC50", "setting": "[10]; read-out: IC50 based on HBsAg measurement, PHH", "value": "0.05 to 0.5", "unit": "nM"}, {"measurement": "inhibition of infection by genotype B and C viruses", "setting": "[10]; viruses from HBV-infected patients", "value": "could inhibit the infection of genotype B and C viruses"}, {"measurement": "cytotoxic effect on PMH", "setting": "[11]", "value": "No notable cytotoxic effect"}, {"measurement": "cytotoxic effect on PHH", "setting": "[12]", "value": "No cytotoxicity was observed"}, {"measurement": "reduction of PMH-associated virions", "setting": "[13]; 0.1 nM", "value": 39, "unit": "%"}, {"measurement": "reduction of PMH-associated virions", "setting": "[13]; 10 nM", "value": 56, "unit": "%"}, {"measurement": "reduction of PMH-associated virions", "setting": "[13]; 1 μM", "value": 74, "unit": "%"}, {"measurement": "HBV attachment to HepG2 cells", "setting": "[14]", "value": "inhibited HBV attachment to HepG2 cells"}, {"measurement": "binding to primary hepatocytes", "setting": "[15]", "value": "does not bind"}, {"measurement": "inhibitory effect on infection of VSV-G pseudotyped lentivirus", "setting": "[16]", "value": "no inhibitory effect"}]}]}
